The source of these data is patent publication US20250059205A1, “Heterocyclic Compounds and Methods of Use” (AMGEN INC., priority 2021, published 2025).

The target in assay [1] is His-tagged KRAS G12D protein (Homo sapiens, UniProt P01116, G12D). Nature of the assay: KRAS G12D TR-FRET Assay. In kind it is binding. A general note: Time-resolved FRET reads energy transfer from a long-lived donor to a nearby acceptor.
In assay [2] the test system is Phosphorylation of ERK1/2 in AsPC-1 cells. The assay can be described thus: Phospho-ERK1/2 MSD Assay (AsPC-1 cells). In kind it is cell-based. The conditions noted are these: Homo sapiens, ASPC1, 2 h, 2 hours treatment, read-out: p-ERK (AsPC-1 cells) IC50. A digest of the protocol: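 Read-out: MSD electrochemiluminescent detection of phosphorylated ERK1/2 in whole-cell lysates, fitted to a 4-parameter logistic curve for IC50. Prior to lysis, AsPC-1 cells (25,000 per well) received a 2 h compound dose-response at 37 °C.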

Assay [3] has as its target GDP-bound KRAS protein (aa 1-169), containing both G12D and C118A amino acid substitutions (Homo sapiens, UniProt P01116, C118A/G12D). The assay can be described thus: KRAS G12D Coupled Nucleotide Exchange Assay. In kind it is biochemical. The conditions noted are these: 2 h compound pre-incubation. As to the method:
Following compound pre-incubation, purified SOS protein (aa 564-1049) and GTP (Roche 10106399001) were added to the assay wells and incubated for an additional 30 min. […] The assay plates were then read on a PerkinElmer EnVision Multilabel Reader, using AlphaScreen® technology, and data were analyzed using a 4-parameter logistic model to calculate IC50 values.

Assay [4] relates to Phosphorylation of ERK1/2 in A-427 cells. The assay can be described thus: Phospho-ERK1/2 MSD Assay (A-427 cells). As to conditions: Homo sapiens, A-427, 2 h, 2 h treatment, read-out: p-ERK (A427 cells) IC50. In kind it is cell-based. Put shortly:
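ERK1/2 phosphorylation measured by Meso Scale whole-cell lysate assay after A-427 cells were exposed to a titration of compound for 2 h at 37 °C.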

GDP-bound KRAS protein (aa 1-169), containing both G12D and C118A amino acid substitutions, sequence (P01116 1-169 isoform P01116-2 G12D/C118A): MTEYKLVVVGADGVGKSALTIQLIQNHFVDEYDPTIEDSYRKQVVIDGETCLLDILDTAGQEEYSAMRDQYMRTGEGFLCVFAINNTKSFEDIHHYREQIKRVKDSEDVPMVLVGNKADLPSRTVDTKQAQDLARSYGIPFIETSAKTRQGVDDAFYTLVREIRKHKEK
His-tagged KRAS G12D protein, sequence (P01116 1-188 isoform P01116-2 G12D): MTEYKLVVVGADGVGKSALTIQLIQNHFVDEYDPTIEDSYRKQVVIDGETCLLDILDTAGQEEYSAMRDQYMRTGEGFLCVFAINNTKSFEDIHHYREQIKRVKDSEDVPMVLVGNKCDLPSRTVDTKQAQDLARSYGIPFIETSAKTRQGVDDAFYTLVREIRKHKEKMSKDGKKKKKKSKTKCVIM

The term IC50 denotes the concentration that inhibits the measured activity by half. With `Fc1cc2c(N3C[C@H]4CC[C@@H](C3)N4)nc(OC[C@@]34CCCN3C[C@H](F)C4)nc2c(F)c1-c1cccc2ccc(F)c(F)c12` [Example 155, 4-((1R,5S)-3,8-diazabicyclo[3.2.1]octan-3-yl)-7-(7,8-difluoronaphthalen-1-yl)-6,8-difluoro-2-(((2R,7aS)-2-fluorotetrahydro-1H-pyrrolizin-7a(5H)-yl)methoxy) quinazoline], the IC50 in assay [1] came out at 0.005 µM; in assay [2], 0.667 µM; in assay [4], 0.639 µM. For the same compound, in assay [3], the “Avg 2 h Coupled Exchange IC50” value was determined as 0.003 µM.

In the case of `Cc1ccc2[nH]nc(C)c2c1-c1c(Cl)cc2c(N3C[C@H]4CC[C@@H](C3)N4)nc(OC[C@@]34CCCN3C[C@H](F)C4)nc2c1F` [Example 207, 4-((1R,5S)-3,8-Diazabicyclo[3.2.1]octan-3-yl)-6-chloro-7-(3,5-dimethyl-1H-indazol-4-yl)-8-fluoro-2-(((2R,7aS)-2-fluorotetrahydro-1H-pyrrolizin-7a(5H)-yl)methoxy)quinazoline], the IC50 was 0.007 µM in assay [1], 0.348 µM in assay [2] and 0.202 µM in assay [4]. Besides, the “Avg 2 h Coupled Exchange IC50” value in assay [3] stood at 0.007 µM.

On to `CCc1c(F)ccc2cc(O)cc(-c3c(F)cc4c(N5[C@@H]6CNC[C@H]5COC6)nc(OC[C@@]56CCCN5C[C@H](F)C6)nc4c3F)c12` [Example 151, 4-(4-((1R,5S)-3-oxa-7,9-diazabicyclo[3.3.1]nonan-9-yl)-6,8-difluoro-2-(((2R,7aS)-2-fluorotetrahydro-1H-pyrrolizin-7a(5H)-yl)methoxy)quinazolin-7-yl)-5-ethyl-6-fluoronaphthalen-2-ol], for which the figures for the IC50 in assay [1], in assay [2] and in assay [4] were 0.004 µM, 0.123 µM and 0.065 µM, respectively. In addition, the “Avg 2 h Coupled Exchange IC50” value in assay [3] came out at 0.003 µM.

As to `Nc1cc(F)c(F)c(-c2c(F)cc3c(N4CC5CCC(C4)N5)nc(OC[C@@]45CCCN4C[C@H](F)C5)nc3c2F)c1` [Example 118], the IC50 in assay [1] came out at 0.14 µM; in assay [2], 4.95 µM; in assay [4] it was 6.78 µM. The “Avg 2 h Coupled Exchange IC50” value in assay [3] worked out at 0.039 µM.

As for `CCc1c(F)ccc2cc(O)cc(-c3c(F)cc4c(N5C[C@H]6CC[C@@H](C5)N6)nc(/C=C/C(C)(C)O)nc4c3F)c12` [Example 218, 4-(4-((1R,5S)-3,8-Diazabicyclo[3.2.1]octan-3-yl)-6,8-difluoro-2-((E)-3-hydroxy-3-methylbut-1-en-1-yl)quinazolin-7-yl)-S-ethyl-6-fluoronaphthalen-2-ol], the IC50 came out at 0.006 µM in assay [1], 1.14 µM in assay [2] and 1.46 µM in assay [4]. Also, the “Avg 2 h Coupled Exchange IC50” value in assay [3] was 0.006 µM.

On to `Cc1ccc2[nH]nc(C)c2c1-c1ccc2c(N3C[C@H]4CC[C@@H](C3)N4)nc(OC[C@@]34CCCN3C[C@H](F)C4)nc2c1F` [Example 209, 4-((1R,5S)-3,8-diazabicyclo[3.2.1]octan-3-yl)-7-(3,5-dimethyl-1H-indazol-4-yl)-8-fluoro-2-(((2R,7aS)-2-fluorotetrahydro-1H-pyrrolizin-7a(5H)-yl)methoxy) quinazoline], for which the concentration for half-maximal inhibition (IC50) in assay [1] was determined as 0.068 µM; in assay [2], 2.57 µM; in assay [4] it was 1.62 µM. Besides, in assay [3], the “Avg 2 h Coupled Exchange IC50” value worked out at 0.024 µM.

For `CCc1c(F)ccc2cc(O)cc(-c3cc(F)c4c(N5C[C@H]6CC[C@@H](C5)N6)nc(OC[C@@]56CCCN5C[C@H](F)C6)nc4c3F)c12` [Example 231, 4-(4-((1R,5S)-3,8-diazabicyclo[3.2.1]octan-3-yl)-5,8-difluoro-2-(((2R,7aS)-2-fluorotetrahydro-1H-pyrrolizin-7a(5H)-yl)methoxy)quinazolin-7-yl)-5-ethyl-6-fluoronaphthalen-2-ol], the values for the IC50 in assay [1], in assay [2] and in assay [4] were 0.004 µM, 0.068 µM and 0.015 µM, respectively. Besides, in assay [3], the “Avg 2 h Coupled Exchange IC50” value was determined as 0.005 µM.

Regarding `Oc1cc(-c2c(Cl)cc3c(N4C[C@H]5CC[C@@H](C4)N5)nc(OC[C@]45CCCN4C[C@H](F)C5)nc3c2F)c2ccccc2c1` [Example 51, 4-(4-((1R,5S)-3,8-diazabicyclo[3.2. 1]octan-3-yl)-6-chloro-8-fluoro-2-(((2R,7aR)-2-fluorotetrahydro-1H-pyrrolizin-7a(5H)-yl)methoxy)quinazolin-7-yl)naphthalen-2-ol], the IC50 in assay [1] turned out to be 0.003 µM; in assay [2], 0.185 µM; in assay [4] it was 0.136 µM. In addition, the “Avg 2 h Coupled Exchange IC50” value in assay [3] turned out to be 0.001 µM.

As for `CCc1c(F)ccc2cc(O)cc(-c3ccc4c(N5C[C@H]6CC[C@@H](C5)N6)nc(O[C@@H](C)C(C)(C)O)nc4c3F)c12` [Example 136, 4-(4-((1R,5S)-3,8-diazabicyclo[3.2.1]octan-3-yl)-8-fluoro-2-(((S)-3-hydroxy-3-methylbutan-2-yl)oxy)quinazolin-7-yl)-5-ethyl-6-fluoronaphthalen-2-ol], the IC50 in assay [1] was 0.056 µM; in assay [2] it was 4.16 µM; in assay [4], 5.35 µM. Further, the “Avg 2 h Coupled Exchange IC50” value in assay [3] came to 0.021 µM.

Consider `CCc1cccc2cccc(-c3c(Cl)cc4c(N5C[C@H]6CC[C@@H](C5)N6)nc(OC[C@@]56CCCN5C[C@H](F)C6)nc4c3F)c12` [Example 71, 4-((1R,5S)-3,8-diazabicyclo[3.2. 1]octan-3-yl)-6-chloro-7-(8-ethylnaphthalen-1-yl)-8-fluoro-2-(((2R,7aS)-2-fluorotetrahydro-1H-pyrrolizin-7a(5H)-yl)methoxy) quinazoline], for which the IC50 was found to be 0.038 µM in assay [1], 3.36 µM in assay [2] and 4.79 µM in assay [4]. The “Avg 2 h Coupled Exchange IC50” value in assay [3] was determined as 0.05 µM.

With `Nc1cc(-c2c(F)cc3c(N4C[C@@H]5CC[C@H]4CN5)nc(OC[C@@]45CCCN4C[C@H](F)C5)nc3c2F)c2ccccc2c1` [Example 117, 4-(4-((1S,4S)-2,5-diazabicyclo[2.2.2]octan-2-yl)-6,8-difluoro-2-(((2R,7aS)-2-fluorotetrahydro-1H-pyrrolizin-7a(5H)-yl)methoxy)quinazolin-7-yl)naphthalen-2-amine], the values for the IC50 in assay [1], in assay [2] and in assay [4] were 0.013 µM, 0.899 µM and 0.411 µM, respectively. Further, the “Avg 2 h Coupled Exchange IC50” value in assay [3] turned out to be 0.007 µM.

Consider `CCc1cccc2cc(O)cc(-c3ccc4c(N5[C@@H]6CC[C@H]5CNC6)nc(OC[C@@]56CCCN5C[C@H](F)C6)nc4c3C)c12` [Example 160, 4-(4-((1R,5S)-3,8-diazabicyclo[3.2.1]octan-8-yl)-2-(((2R,7aS)-2-fluorotetrahydro-1H-pyrrolizin-7a(5H)-yl)methoxy)-8-methylquinazolin-7-yl)-5-ethylnaphthalen-2-ol], for which the IC50 is 0.005 µM in assay [1], 0.754 µM in assay [2] and 0.41 µM in assay [4]. Also, the “Avg 2 h Coupled Exchange IC50” value in assay [3] was determined as 0.006 µM.

`Oc1cc(-c2c(Cl)cc3c(N4C[C@H]5CC[C@@H](C4)N5)nc(OC[C@@]45CCCN4C[C@H](F)C5)nc3c2F)c2ccccc2c1` [Example 52, 4-(4-((1R,5S)-3,8-diazabicyclo[3.2. 1]octan-3-yl)-6-chloro-8-fluoro-2-(((2R,7aS)-2-fluorotetrahydro-1H-pyrrolizin-7a(5H)-yl)methoxy)quinazolin-7-yl)naphthalen-2-ol]: the IC50 in assay [1] was determined as 0.003 µM; in assay [2], 0.107 µM; in assay [4], 0.041 µM. In addition, in assay [3], the “Avg 2 h Coupled Exchange IC50” value was found to be 0.003 µM.

Take `CCc1c(F)ccc2cc(O)cc(-c3ccc4c(N5C[C@H]6CC[C@@H](C5)N6)nc(OCC(C)(C)O)nc4c3F)c12` [Example 131, 4-(4-((1R,5S)-3,8-diazabicyclo[3.2.1]octan-3-yl)-8-fluoro-2-(2-hydroxy-2-methylpropoxy)quinazolin-7-yl)-5-ethyl-6-fluoronaphthalen-2-ol]: the IC50 was 0.009 µM in assay [1], 0.926 µM in assay [2] and 0.682 µM in assay [4]. Also, the “Avg 2 h Coupled Exchange IC50” value in assay [3] was found to be 0.005 µM.

As to `Oc1cc(-c2ccc3c(N4C[C@H]5CC[C@@H](C4)N5)nc(OC[C@@]45CCCN4C[C@H](F)C5)nc3c2F)c2ccccc2c1` [Example 46, 4-(4-((1R,5S)-3,8-diazabicyclo[3.2. 1]octan-3-yl)-8-fluoro-2-(((2R,7aS)-2-fluorotetrahydro-1H-pyrrolizin-7a(5H)-yl)methoxy)quinazolin-7-yl)naphthalen-2-ol], the values for the IC50 in assay [1], in assay [2] and in assay [4] were 0.002 µM, 0.039 µM and 0.006 µM, respectively. The “Avg 2 h Coupled Exchange IC50” value in assay [3] came to 0.002 µM.
